The target of experiment [1] is T1, human TRPA1 (Homo sapiens, UniProt O75762, K186N/R3C/R58T).
T1 construct: expressed in transfected cells
Put plainly: TRPA1 Protocol-FLIPR Assay (intracellular Ca2+). It counts as cell-based. As to the method:
To determine whether TRPA1 is activated, the intracellular calcium ion (Ca^2+) level from transfected cells with the TRPA1 receptor sequence (SEQ ID NO: 2) was measured. HEK-293 cells stably transfected with human TRPA1 were grown in 15 ml growth medium (high glucose DMEM (Dulbecco's Modification of Eagle's Medium) supplemented with 10% FBS (fetal bovine serum), 100 μg/ml penicillin/streptomycin, 100 μg/ml G418) in a 75cm^2 flask for 3 days at 37° C. in a mammalian cell culture incubator set at 5% CO2. Cells were detached with addition of 10 ml of PBS (phosphate buffered saline) by hand shaking gently and transferred to a 50 ml tube and centrifuged at 850 rpm for 3 minutes to remove PBS. After centrifugation, a pellet of cells was formed in the bottom of the tube separating them from the supernatant solution. The supernatant was discarded and the cell pellet suspended in 1 ml of fresh growth medium to which 5 μl (12.5 μg) of Fluo-4 AM (Molecular Probes, Inc.) calcium indicator was added and incubated for 30 minutes with gentle shaking. At the end of the 30 minutes, 45 ml of assay buffer (1× HBSS (Hank's Balanced Salt Solution), 20 mM HEPES (4-(2-Hydroxyethyl)-1-piperazineethanesulfonic acid)) was added to wash the cells and the resulting combination was then centrifuged at 850 rpm for 3 minutes to remove excess buffer and Fluo-4 AM calcium indicator.
The pelleted cells were re-suspended in 10 ml assay buffer and 90 μll aliquots (˜50,000 cells) per well delivered to a 96-well assay was placed into a fluorometric imaging plate reader (FLIPR TETRA from Molecular Devices) and basal fluorescence recorded (excitation wave length 488 nm and emission wave length 510 nm). Then 20 μl of the test compound being tested was added and fluorescence recorded (TABLES 2 and 3).
To determine if a compound was an agonist the direct effect of a test compound was determined. If any increase in fluorescence over background was noted, then the compound was considered an agonist. The agonist activity was expressed relative to that observed with a benchmark agonist such as 50 μm allyl isothiocyanate for TRPAL

Experiment [2] concerns the target T2, human TRPV1 (Homo sapiens, UniProt Q8NER1, M315I/T336M).
T2 construct: expressed in transfected cells
Put plainly: TRPV1 Protocol-FLIPR Assay (intracellular Ca2+). Format: cell-based. As to the method: To determine whether TRPV1 was activated, the intracellular calcium ion (Ca^+2) levels from cells transfected with the TRPV1 receptor sequence (SEQ ID NO: 1) were measured. […] Cells were detached with addition of 10 ml of PBS (phosphate buffered saline) by gentle hand shaking. Cells were transferred to a 50 ml tube and centrifuged at 850 rpm for 3 minutes to remove PBS. After centrifugation, a pellet of cells formed in the bottom of the tube separating them from the supernatant solution. The supernatant was discarded and the cell pellet suspended in 1 ml of fresh growth medium to which 5 μl (12.5 μg) of Fluo-4 AM (Molecular Probes, Inc., Eugene, Oreg.) calcium indicator was added and incubated for 30 minutes with gentle shaking. […] The pelleted cells were re-suspended in 10 ml assay buffer and 90 μl aliquots (˜50,000 cells) per well delivered to a 96-well assay plate was placed into a fluorometric imaging plate reader (FLIPR TETRA from Molecular Devices) and basal fluorescence recorded (excitation wave length 488 nm and emission wave length 510 nm). Then 20 μl of a test compound-being tested as a TRPV1 receptor agonist was added and fluorescence recorded. The observed value with compound pretreated cells was compared with buffer control; the difference between the two indicating a measure of effect of the test compound on the agonist (TABLES 2 and 3). If any increase in fluorescence over background was noted, then the compound was considered an agonist.

For experiment [3] the following is noted: concentration where the cooling effect could be clearly recognized; Emberger and Hopp 1987; cited from earlier work.
The target in experiment [4] is T3, human TRPM8 (UniProt Q8R4D5).
T3 construct: Receptor Activity TRPM8; Receptor Activity TRPM8; other: test compound at 0.001%; relative to WS5 control (30 microMolar); HEK 293 cells; other: test compound at 0.004%; other: test compound at 5.2E−5%; relative to WS5 control
Put plainly: TRPM8 Protocol-FLIPR Assay (intracellular Ca2+). It counts as cell-based. As to the method:
(§1) To determine whether TRPM8 is activated, the intracellular calcium ion (Ca^2+) level was measured from transfected cells with the TRPM8 receptor sequence (SEQ ID NO: 3). HEK-293 (human embryonic kidney) cells stably transfected with human TRPM8 were grown in 15 ml growth medium (high glucose DMEM (Dulbecco's Modification of Eagle's Medium) supplemented with 10% FBS (fetal bovine serum), 100 ug/ml penicillin/streptomycin, 5 μg/ml blasticindin, and 100 μg/ml zeocin) in a 75 cm^2 flask for 3 days at 37° C. in a mammalian cell culture incubator set at 5% CO2 Cells were detached with addition of 2 ml of trypsin-EDTA buffer (GIBCO® 25200, Invitrogen, Grand Island, N.Y.) for about 2-3 min. Trypsin was inactivated by addition of 8 ml growth medium. Cells were transferred to a 50 ml tube and centrifuged at 850 rpm for 3 minutes to remove medium. After centrifugation, a pellet of cells was formed in the bottom of the tube separating them from the supernatant solution. The supernatant was discarded and the cell pellet was suspended in 1 ml of fresh growth medium to which 5 μl (12.5 μg) of Fluo-4 AM (Molecular Probes, Inc., Eugene, Oreg.) calcium indicator was added and incubated for 30 min with gentle shaking. Fluo-4 AM is a fluorescent dye used for quantifying cellular Ca^2+ concentrations in the 100 nM to 1 microM range. At the end of 30 minutes, 45 ml of assay buffer (1× HBSS (Hank's Balanced Salt Solution), 20 mM HEPES (4-(2-Hydroxyethyl)-1-piperazineethanesulfonic acid)) was added to wash cells and the resulting mixture was then centrifuged at 850 rpm for 3 minutes to remove excess buffer and Fluo-4 AM calcium indicator.
(§2) The pelleted cells were re-suspended in 10 ml assay buffer and 90 μl aliquots (˜50,000 cells) per well delivered to a 96-well assay plate containing 10 μl of test compounds (1 mM in assay buffer, […]) or buffer control and incubated at room temperature for 30 minutes. After 30 minutes, a plate was placed into a fluorometric imaging plate reader (FLIPR384 from Molecular Devices, Sunnyvale, Calif.) and basal fluorescence recorded (excitation wave length 488 nm and emission wave length 510 nm). Then 20 μl of […] of TRPM8 agonist WS5 coolant in the assay buffer was added and fluorescence recorded. For determining the direct effect of test compounds on TRPM8, fluorescence was measured immediately after addition of each compound (TABLES 2 and 3). Additional discussion of the FLIPR method can be found in Smart et al., Characterization using FLIPR of human vanilloid VR1 receptor pharmacology, European Journal of Pharmacology 417, 51-58 (2001) and Liu et al., Development and validation of a platelet calcium flux assay using a fluorescent imaging plate reader, Analytical Biochemistry 357, 216-224 (2006).
(§3) TRPM8 activation was determined by measuring intracellular calcium ion (Ca^2+) level from transfected cells with the TRPM8 receptor gene, as described in EXAMPLE 1, the results of which are shown in TABLES 4 and 5.

Experiment [5] can be described thus: Sensation reported by panelists. Format: in vivo. The conditions noted are these: perceived sensation, in words.
Experiment [6] relates to human TRPM8. Put plainly: TRPM8 Protocol-FLIPR Assay (intracellular Ca2+). Format: cell-based. The conditions noted are these: dose 30 uM. Here is the method: as §1, §2, §3
Where [7] appears, read: test compound at 5.2E−5%, relative to Capsaicin control (350 nanoMolar), HEK 293 cells.
The mark [8] stands for this setting: test compound at 5.2E−5%, relative to Allyl Isothiocyanate control (50 microMolar), HEK 293 cells.
[9] abbreviates: test compound at 0.02%, relative to Capsaicin control (350 nanoMolar), HEK 293 cells.
Where [10] appears, read: test compound at 0.02%, relative to Allyl Isothiocyanate control (50 microMolar), HEK 293 cells.

Results on eleven compounds are retold here after patent US9974761B2, “Medications for deposition on biological surfaces” (The Procter & Gamble Company, priority 2014, dated 2018).

T2 sequence (Q8NER1 whole entry M315I/T336M): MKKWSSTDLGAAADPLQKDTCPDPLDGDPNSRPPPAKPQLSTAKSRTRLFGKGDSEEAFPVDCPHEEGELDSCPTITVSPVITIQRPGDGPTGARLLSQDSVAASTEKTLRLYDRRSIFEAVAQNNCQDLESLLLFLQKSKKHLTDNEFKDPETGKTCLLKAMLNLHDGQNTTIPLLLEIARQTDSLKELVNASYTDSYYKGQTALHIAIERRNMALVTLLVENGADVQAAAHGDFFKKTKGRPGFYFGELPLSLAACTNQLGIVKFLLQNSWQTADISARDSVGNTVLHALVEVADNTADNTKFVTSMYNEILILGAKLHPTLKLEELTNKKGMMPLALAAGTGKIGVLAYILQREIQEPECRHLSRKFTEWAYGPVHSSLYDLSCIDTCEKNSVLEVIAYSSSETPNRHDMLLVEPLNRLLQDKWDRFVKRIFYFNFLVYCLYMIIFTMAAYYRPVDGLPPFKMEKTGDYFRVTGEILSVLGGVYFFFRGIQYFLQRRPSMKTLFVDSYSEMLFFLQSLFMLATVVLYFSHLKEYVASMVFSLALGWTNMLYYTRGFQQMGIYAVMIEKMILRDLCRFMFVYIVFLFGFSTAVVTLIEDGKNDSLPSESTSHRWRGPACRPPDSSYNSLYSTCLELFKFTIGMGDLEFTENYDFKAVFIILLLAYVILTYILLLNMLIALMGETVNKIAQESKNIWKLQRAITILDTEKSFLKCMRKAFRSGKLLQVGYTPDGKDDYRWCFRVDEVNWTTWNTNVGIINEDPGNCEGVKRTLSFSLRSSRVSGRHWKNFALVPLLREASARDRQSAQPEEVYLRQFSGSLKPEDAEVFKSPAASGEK
T1 sequence (O75762 whole entry R3C/R58T/K186N): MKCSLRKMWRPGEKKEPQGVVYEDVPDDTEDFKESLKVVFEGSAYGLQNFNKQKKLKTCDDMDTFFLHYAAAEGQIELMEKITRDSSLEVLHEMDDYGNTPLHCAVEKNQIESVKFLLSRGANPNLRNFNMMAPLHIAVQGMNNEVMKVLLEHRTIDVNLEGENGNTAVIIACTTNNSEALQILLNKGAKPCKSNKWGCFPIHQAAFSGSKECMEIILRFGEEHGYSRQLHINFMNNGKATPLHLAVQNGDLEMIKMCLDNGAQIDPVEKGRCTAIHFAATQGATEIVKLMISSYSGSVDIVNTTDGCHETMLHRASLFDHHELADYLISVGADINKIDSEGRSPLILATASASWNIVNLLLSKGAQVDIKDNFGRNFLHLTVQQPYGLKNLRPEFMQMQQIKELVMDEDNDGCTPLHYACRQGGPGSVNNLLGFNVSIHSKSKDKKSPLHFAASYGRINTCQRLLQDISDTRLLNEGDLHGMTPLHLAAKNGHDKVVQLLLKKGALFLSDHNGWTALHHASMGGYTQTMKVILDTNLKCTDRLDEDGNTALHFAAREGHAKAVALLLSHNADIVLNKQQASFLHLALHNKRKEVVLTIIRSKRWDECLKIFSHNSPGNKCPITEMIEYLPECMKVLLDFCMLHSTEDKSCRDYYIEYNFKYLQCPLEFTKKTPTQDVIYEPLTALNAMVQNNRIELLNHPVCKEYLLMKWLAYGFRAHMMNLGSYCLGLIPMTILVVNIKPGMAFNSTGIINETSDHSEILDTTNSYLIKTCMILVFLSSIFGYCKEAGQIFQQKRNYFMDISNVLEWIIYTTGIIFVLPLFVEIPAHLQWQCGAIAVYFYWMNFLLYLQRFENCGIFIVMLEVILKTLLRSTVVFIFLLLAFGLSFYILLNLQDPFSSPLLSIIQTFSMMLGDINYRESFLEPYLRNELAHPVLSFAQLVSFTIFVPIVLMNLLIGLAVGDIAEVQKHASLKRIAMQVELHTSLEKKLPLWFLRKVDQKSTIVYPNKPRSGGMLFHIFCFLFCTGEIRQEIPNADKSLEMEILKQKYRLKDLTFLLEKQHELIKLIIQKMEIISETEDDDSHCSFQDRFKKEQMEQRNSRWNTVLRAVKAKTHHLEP

Regarding `C=CCN=C=S` [Allyl Isothiocyanate, reference compound], the “Receptor Activity TRPA1” value in experiment [1] (control agonist at 50 microMolar (reference = 100%)) was found to be 100%.

With `COc1cc(CNC(=O)CCCC/C=C/C(C)C)ccc1O` [Capsaicin, reference compound], the “Receptor Activity TRPV1” value in experiment [2] (control agonist at 350 nanoMolar (reference = 100%)) worked out at 100%.

As to `CC(C)[C@@H]1CC[C@@H](C)C[C@@H]1O` [Compound 1-neomenthol, 1-neomenthol], the cooling threshold entry in experiment [3] was “about 3,000 ppb”.

With `CC(C)[C@@H]1CC[C@@H](C)C[C@H]1C(=O)NCC(NC(=O)[C@@H](C)N)c1ccccc1` (stereo partly drawn) [Compound 28, Cyclohexane-carboxamide, N-[2-[[(2R)-2-amino-1-oxopropyl]amino]-2-phenylethyl]-5-methyl-2-(1-methylethyl)-, (1R,2S,5R)-*], the “Receptor Activity TRPV1” value in experiment [2] (setting [7]) was found to be 104.50%. Moreover, the “Receptor Activity TRPA1” value in experiment [1] (setting [8]) turned out to be 242.50%. Also, the “mass efficiency relative to N-(4-cyanomethylphenyl)-p-menthanecarboxamide” value in experiment [4] (at a single concentration, TRPM8 activity vs WS5) was found to be 100 ×. The “Receptor Activity TRPM8” value in experiment [4] (test compound at 5.2E−6%, relative to WS5 control (30 microMolar), HEK 293 cells) was 130.42%; in experiment [4] (test compound at 5.2E−6%, relative to WS5 control (30 microMolar), HEK 293 cells, listed as compound 28), 130%. Besides, the “sensation (cooling, warming, burning)” value in experiment [5] is “cooling sensations”.

With `CC(C)[C@@H]1CC[C@@H](C)C[C@H]1C(=O)NCC(OCCN)c1ccccc1` (stereo partly drawn) [Compound 30, Cyclohexane-carboxamide, N-[2-(2-aminoethoxy)-2-phenylethyl]-5-methyl-2-(1-methylethyl)-, (1R,2S,5R)-*], in experiment [2] (setting [7]), the “Receptor Activity TRPV1” value stood at 16.24%. In addition, the “Receptor Activity TRPA1” value in experiment [1] (setting [8]) is on record as 38.18%. In experiment [4] (test compound at 5.2E−5%, relative to WS5 control (30 microMolar), HEK 293 cells), the “Receptor Activity TRPM8” value turned out to be 109.70%. In experiment [5], the “sensation (cooling, warming, burning)” value is given as “lack of sensation, cooling or warming”.

On to `CC(C)[C@@H]1CC[C@@H](C)C[C@H]1C(=O)Nc1ccc(CC#N)cc1` [Compound 180, Cyclohexane-carboxamide, N-[4-(cyanomethyl)phenyl]-5-methyl-2-(1-methylethyl)-, (1R,2S,5R)-, reference compound], for which the “Receptor Activity TRPV1” value in experiment [2] (test compound at 0.001%, relative to Capsaicin control (350 nanoMolar), HEK 293 cells) is recorded as 0.01%. Moreover, in experiment [1] (test compound at 0.001%, relative to Allyl Isothiocyanate control (50 microMolar), HEK 293 cells), the “Receptor Activity TRPA1” value is 68.02%. The “Receptor Activity TRPM8” value in experiment [4] (test compound at 0.001%, relative to WS5 control (30 microMolar), HEK 293 cells) is reported as 108.80%; in experiment [4] (test compound at 0.001%, relative to WS5 control (30 microMolar), HEK 293 cells, listed as N-(4-cyanomethylphenyl)-p-menthanecarboxamide), 109%.

Take `CSc1ccc(NC(=O)[C@@H]2C[C@H](C)CC[C@H]2C(C)C)c(NCCN)c1` [Compound 773, Cyclohexane-carboxamide N-[2-[(2-aminoethyl)amino]-4-(methylthio)phenyl]-5-methyl-2-(1-methylethyl)-(1R,2S,5R)-*]: in experiment [2] (setting [9]), the “Receptor Activity TRPV1” value is 92.07%. Moreover, in experiment [1] (setting [10]), the “Receptor Activity TRPA1” value came out at 198.79%. Besides, the “sensation (cooling, warming, burning)” value in experiment [5] is listed as “warming”.

For `CC(C)[C@@H]1CC[C@@H](C)C[C@H]1C(=O)Nc1ccc2ccccc2c1OCCN` [Compound 777, Cyclohexane-carboxamide, N-[1-(2-aminoethoxy)-2-naphthalenyl]-5-methyl-2-(1-methylethyl)-, (1R,2S,5R)-*], the “Receptor Activity TRPV1” value in experiment [2] (setting [9]) is 60.5%. Moreover, in experiment [1] (setting [10]), the “Receptor Activity TRPA1” value amounted to 173.88%. For the same compound, the entries for the “sensation (cooling, warming, burning)” value in experiment [5] and in experiment [5] (listed as test compound 777) were “burning” and “burning sensation”, respectively.

As for `CC(C)[C@@H]1CC[C@@H](C)C[C@H]1O` [L-menthol], the cooling threshold entry in experiment [3] was “about 800 ppb”.

For the compound `CCOC(=O)CNC(=O)C1CC(C)CCC1C(C)C` (stereo not shown) [WS5, N-ethoxycarbonylmethyl-ρ-menthan-3-carboxamide, reference compound], the “Receptor Activity TRPM8” value in experiment [4] (control agonist at 30 microMolar (reference = 100%)) is reported as 100%. For the same compound, the “TRPM8 Time Course Activity 50 sec % of WS5” value in experiment [4] (dose 30 uM, 50 sec) is 100.0%; in experiment [6] (50 sec), 100.0%. Also, the “TRPM8 Time Course Activity 50 sec” value in experiment [4] (dose 30 uM, fluorescence at 50 sec) was determined as 10059.7; in experiment [6] (fluorescence at 50 sec), 10059.7. For the same compound, in experiment [6] (3 min), the “TRPM8 Time Course Activity 3 min % of WS5” value is recorded as 100.0%. Besides, the “TRPM8 Time Course Activity 5 min % of WS5” value in experiment [6] (5 min) turned out to be 100.0%. The “TRPM8 Time Course Activity 10 min % of WS5” value in experiment [6] (10 min) is on record as 100.0%. Moreover, the “TRPM8 Time Course Activity 3 min” value in experiment [6] (fluorescence at 3 min) worked out at 9449.3. Moreover, the “TRPM8 Time Course Activity 5 min” value in experiment [6] (fluorescence at 5 min) is listed as 9468.0. The “TRPM8 Time Course Activity 10 min” value in experiment [6] (fluorescence at 10 min) came out at 9576.0.

As for `CC(C)[C@@H]1CC[C@@H](C)C[C@@H]1O` [d-neomenthol], the cooling threshold entry in experiment [3] is “about 25,000 ppb”.
